Laboratory results taken from article PMC8398451, “Molecular Engineering of Curcumin, an Active Constituent of Curcuma longa L. (Turmeric) of the Family Zingiberaceae with Improved Antiproliferative Activity” (Plants, 2021).

Legend:
[1] = test system: HS 578T; assay: NCI antiproliferative SRB assay, Breast Cancer panel; assay type: cell-based, Human
[2] = test system: U251; assay: NCI antiproliferative SRB assay, CNS Cancer panel; assay type: cell-based
[3] = test system: MDA-MB-468; assay: NCI antiproliferative SRB assay, Breast Cancer panel; assay type: cell-based, Human
Description: The antiproliferative activity of tested compounds was done against five dozen (60) cancer cell lines derived from nine different panels. All of the compounds were evaluated for antiproliferative activity in a single dose at 10 µM. Growth percent (GP) and percent growth inhibition (% GI) were used to calculate antiproliferative activity. […] The antiproliferative results of five-dose assay were calculated as three dose related parameters like, 50% growth inhibition (GI50), 50% lethal concentration (LC50), and total growth inhibition TGI [43, 44, 45, 46, 47].
Human tumor cell lines were grown in RPMI 1640 medium containing 5% fetal bovine serum and 2 mM L-glutamine. For a typical screening experiment, cells were inoculated into 96-well microtiter plates in 100 µL at plating densities ranging from 5000 to 40,000 cells/well, depending on the doubling time of individual cell lines. Two plates of each cell line were fixed in situ with trichloroacetic acid (TCA) after 24 h to represent a cell population measurement for each cell line at the time of drug addition (Ti). The experimental drugs were frozen after being solubilized in dimethyl sulfoxide at 400-fold the desired final maximum test concentration. An aliquot of frozen concentrate was thawed and diluted to twice the desired final maximum test concentration with medium containing 50 µg/mL gentamicin at the time of drug addition. Additional four, 10-fold, or ½ log serial dilutions serial dilutions were performed to provide a total of five drug concentrations plus the control. Aliquots of 100 µL of these different drug dilutions were added to the appropriate microtiter wells already containing 100 µL of medium, resulting in the required final drug concentrations. Following drug addition, the plates are incubated for an additional 48 h at 37 °C, 5% CO2, 95% air, and 100% relative humidity. For adherent cells, the assay is terminated by the addition of cold TCA. Cells are fixed in situ by the gentle addition of 50 µL of cold 50% (w/v) TCA (final concentration, 10% TCA) and incubated for 60 min at 4 °C. The supernatant is discarded, and the plates are washed five times with tap water and air dried. Sulforhodamine B (SRB) solution (100 µL) at 0.4% (w/v) in 1% acetic acid was added to each well, and plates were incubated for 10 min at room temperature. After staining, unbound dye was removed by washing five times with 1% acetic acid and the plates were air dried. Bound stain was subsequently solubilized with 10 mM trizma base, and the absorbance was read on an automated plate reader at a wavelength of 515 nm. For suspension cells, the methodology was the same except that the assay was terminated by fixing settled cells at the bottom of the wells by gently adding 50 µL of 80% TCA (final concentration, 16% TCA). […]
Antiproliferative activity
The anticancer screening was carried ou t as per the NCI US protocol. Using the seven absorbance measurements (time zero, (Ti), control growth, (C), and test growth in the presence of drug at the five concentration levels (Tf)), the percentage growth was calculated at each of the drug concentrations level as [( Tf−Ti × 100 for concentrations for which Tf ≥ Ti, and Tf−Ti × 100 for […]
concentrations for which Tf < Ti.
Three-dose response parameters (GI50, TGI, and LC50) were calculated for each of the experimental agents. Growth inhibition of 50% (GI50) was calculated from 100 × Tf−Ti = 50, , which was […]
the drug concentration resulting in a 50% reduction in the net protein increase (as measured by sulforhodamine B, SRB staining) in control cells during the drug incubation. The total growth inhibition (TGI) was calculated from Tf = Ti, which was the drug concentration resulting in total growth inhibition and signified the cytostatic effect. The LC50 was calculated from 100 × Tf−Ti = −50, , indicating a net loss […]
of cells following treatment which indicated the concentration of drug resulting in a 50% reduction in the […]

[4] = test system: PC-3; assay: NCI antiproliferative SRB assay, Prostate Cancer panel; assay type: cell-based, Human
[5] = test system: SK-MEL-5; assay: NCI antiproliferative SRB assay, Melanoma panel; assay type: cell-based, Human
[6] = test system: IGROV1; assay: NCI antiproliferative SRB assay, Ovarian Cancer panel; assay type: cell-based, Human
[7] = test system: 786–0; assay: NCI antiproliferative SRB assay, Renal Cancer panel; assay type: cell-based, Human
[8] = test system: K-562; assay: NCI antiproliferative SRB assay, Leukemia panel; assay type: cell-based, Human
[9] = test system: CAKI-1; assay: NCI antiproliferative SRB assay, Renal Cancer panel; assay type: cell-based, Human
[10] = test system: MDA-MB-231; assay: NCI antiproliferative SRB assay, Breast Cancer panel; assay type: cell-based
[11] = test system: HT29; assay: NCI antiproliferative SRB assay, Colon Cancer panel; assay type: cell-based, Human
[12] = test system: Non-Small Cell Lung Cancer cell line panel; assay: NCI antiproliferative assay, panel summary; assay type: cell-based, Human
[13] = test system: SF-295; assay: NCI antiproliferative SRB assay, CNS Cancer panel; assay type: cell-based, Human
[14] = test system: HOP-62; assay: NCI antiproliferative SRB assay, Non-Small Cell Lung Cancer panel; assay type: cell-based, Human
[15] = test system: DU-145; assay: NCI antiproliferative SRB assay, Prostate Cancer panel; assay type: cell-based, Human
[16] = Homo sapiens, 5-dose 0.01-100 µM
[17] = Homo sapiens, 5-dose 0.01-100 µM, read-out: LC50 (the source's name)

In the case of `COc1ccc(NC(=O)n2nc(/C=C/c3ccc(O)c(OC)c3)cc2/C=C/c2ccc(O)c(OC)c2)cc1` [3b], the TGI ([1]; 5-dose 0.01-100 µM) is reported as 61.9 µM, the GI50 [1, 16] is reported as 6.77 µM and the CC50 [1, 17] is reported as > 100 µM. The “%GI” value ([1]; one dose 10 µM) was 71.29%, the “GP (growth percent)” value ([1]; one dose 10 µM) was 28.71 and the GI50 ([2]; Homo sapiens, U-251) was 3.55 µM. For the same compound, the CC50 ([2]; Homo sapiens, U-251, U251, 5-dose 0.01-100 µM, read-out: LC50 (the source's name)) was > 100 µM, the TGI ([2]; U251, 5-dose 0.01-100 µM) was 20.9 µM and the “%GI” value ([2]; U251, one dose 10 µM) was 73.97%. For the same compound, the “GP (growth percent)” value ([2]; U251, one dose 10 µM) was 26.03, the LC50 (50% lethal concentration) ([3]; Homo sapiens, MDA-MB-468, read-out: LC50) was > 100 µM and the GI50 ([3]; Homo sapiens, MDA-MB-468, 5-dose 0.01-100 µM) was 3.55 µM. For the same compound, the TGI ([3]; MDA-MB-468, 5-dose 0.01-100 µM) was 21.6 µM, the “%GI” value ([3]; MDA-MB-468, one dose 10 µM) was 65.32% and the “GP (growth percent)” value ([3]; MDA-MB-468, one dose 10 µM) was 34.68. The TGI ([4]; 5-dose 0.01-100 µM) was >100 µM, the GI50 [4, 16] was 5.11 µM and the CC50 [4, 17] was > 100 µM. For the same compound, the “%GI” value ([4]; one dose 10 µM) was 71.57%, the “GP (growth percent)” value ([4]; one dose 10 µM) was 28.43 and the TGI ([5]; 5-dose 0.01-100 µM) was 16.1 µM. For the same compound, the GI50 [5, 16] was 3.67 µM, the CC50 [5, 17] was > 100 µM and the “%GI” value ([5]; one dose 10 µM) was 90.96%. The “GP (growth percent)” value ([5]; one dose 10 µM) was 9.04, the TGI ([6]; 5-dose 0.01-100 µM) was 57.0 µM and the GI50 ([6]; Homo sapiens, IGROV-1, 5-dose 0.01-100 µM) was 4.49 µM. For the same compound, the CC50 ([6]; Homo sapiens, IGROV-1, 5-dose 0.01-100 µM, read-out: LC50 (the source's name)) was > 100 µM, the “%GI” value ([6]; one dose 10 µM) was 65.61% and the “GP (growth percent)” value ([6]; one dose 10 µM) was 34.39. The TGI ([7]; 5-dose 0.01-100 µM) was 24.3 µM, the GI50 [7, 16] was 4 µM and the CC50 [7, 17] was > 100 µM. The “%GI” value ([7]; one dose 10 µM) was 67.92%, the “GP (growth percent)” value ([7]; one dose 10 µM) was 32.08 and the TGI ([8]; 5-dose 0.01-100 µM) was 16.9 µM. The GI50 ([8]; Homo sapiens, K562, 5-dose 0.01-100 µM) was 2.87 µM, the CC50 ([8]; Homo sapiens, K562, 5-dose 0.01-100 µM, read-out: LC50 (the source's name)) was > 100 µM and the “%GI” value ([8]; one dose 10 µM) was 90.75%. The “GP (growth percent)” value ([8]; one dose 10 µM) was 9.25, the TGI ([9]; 5-dose 0.01-100 µM) was >100 µM and the GI50 [9, 16] was 3.6 µM. For the same compound, the CC50 [9, 17] was > 100 µM, the “%GI” value ([9]; one dose 10 µM) was 61.94% and the “GP (growth percent)” value ([9]; one dose 10 µM) was 38.06. The TGI ([10]; 5-dose 0.01-100 µM) was 83.5 µM, the GI50 ([10]; Homo sapiens) was 4.94 µM and the CC50 [10, 17] was > 100 µM. For the same compound, the “%GI” value ([10]; one dose 10 µM) was 63.47%, the “GP (growth percent)” value ([10]; one dose 10 µM) was 36.53 and the TGI ([11]; 5-dose 0.01-100 µM) was 11.0 µM. The GI50 ([11]; Homo sapiens, HT-29, 5-dose 0.01-100 µM) was 3.52 µM, the CC50 ([11]; Homo sapiens, HT-29, 5-dose 0.01-100 µM, read-out: LC50 (the source's name)) was > 100 µM and the “%GI” value ([11]; one dose 10 µM) was 68.74%. For the same compound, the “GP (growth percent)” value ([11]; one dose 10 µM) was 31.26, the “Mean % GI” value ([12]; 10 µM) was 56.51% and the “Selectivity Ratio (MID a:MID b)” value ([12]; 5-dose assay) was 0.92. For the same compound, the GI50 ([12]; Homo sapiens, 5-dose assay, read-out: Sub Panel MID b (mean GI50 of panel)) was 5.32 µM, the TGI ([13]; 5-dose 0.01-100 µM) was 53.2 µM and the GI50 [13, 16] was 6.25 µM. For the same compound, the CC50 [13, 17] was > 100 µM, the “%GI” value ([13]; one dose 10 µM) was 48.38% and the “GP (growth percent)” value ([13]; one dose 10 µM) was 51.62. For the same compound, the TGI ([14]; 5-dose 0.01-100 µM) was 42.8 µM, the GI50 [14, 16] was 3.65 µM and the CC50 [14, 17] was > 100 µM. For the same compound, the “%GI” value ([14]; one dose 10 µM) was 67.25%, the “GP (growth percent)” value ([14]; one dose 10 µM) was 32.75 and the TGI ([15]; 5-dose 0.01-100 µM) was 24.6 µM. For the same compound, the GI50 [15, 16] was 3.99 µM, the CC50 [15, 17] was > 100 µM and the “%GI” value ([15]; one dose 10 µM) was 72.77%. For the same compound, the “GP (growth percent)” value ([15]; one dose 10 µM) was 27.23.
